Laboratory results as given in patent publication US11117892B2, “Pyrrolo-pyridine derivative compound, method for preparing same, and pharmaceutical composition containing same as active ingredient for prevention or treatment of protein kinase-related diseases” (DAEGU-GYEONGBUK MEDICAL INNOVATION FOUNDATION, priority 2017, dated 2021).

Legend:
Test in all cases: scanMAX Kinase assay panel
Assay type in all cases: binding
Conditions in all cases: read-out: % control
AKT1 = AKT1 (Homo sapiens (Human), UniProt P31749)
Procedure: (§1) DiscoverX Co. was asked to measure the enzyme (kinase) selectivity, and the experiment was performed using scanMAX™ Kinase assay panel.
(§2) (Example Compound−Positive Control)/(Negative Control−Positive Control)×100 [Equation 1]
(§3) Herein, the positive control indicates the compound showing the % control of 0%, and the negative control indicates DMSO showing the % control of 100%.

BRAF(V600E) = BRAF(V600E) (Homo sapiens (Human), UniProt P15056, V600E)
Procedure: as §1, §2, §3

CHEK2 = CHEK2 (Homo sapiens (Human), UniProt O96017)
Procedure: as §1, §2, §3

DAPK3 = DAPK3 (Homo sapiens (Human), UniProt O43293)
DAPK3, sequence (O43293 whole entry): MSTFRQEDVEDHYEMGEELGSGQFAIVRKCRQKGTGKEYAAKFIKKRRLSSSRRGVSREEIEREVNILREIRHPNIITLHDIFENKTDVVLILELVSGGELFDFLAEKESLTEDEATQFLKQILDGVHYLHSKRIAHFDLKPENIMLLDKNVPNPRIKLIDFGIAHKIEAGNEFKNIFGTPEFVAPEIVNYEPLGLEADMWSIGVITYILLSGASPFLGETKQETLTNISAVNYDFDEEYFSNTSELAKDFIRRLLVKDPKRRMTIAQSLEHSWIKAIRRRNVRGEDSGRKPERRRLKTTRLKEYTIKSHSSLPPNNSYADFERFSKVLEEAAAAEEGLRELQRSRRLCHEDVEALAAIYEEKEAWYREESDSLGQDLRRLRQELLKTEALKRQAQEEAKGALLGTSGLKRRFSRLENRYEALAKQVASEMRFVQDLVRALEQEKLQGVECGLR
Procedure: as §1, §2, §3

EPHB1 = EPHB1 (Homo sapiens (Human), UniProt P54762)
EPHB1, sequence (P54762 18-984): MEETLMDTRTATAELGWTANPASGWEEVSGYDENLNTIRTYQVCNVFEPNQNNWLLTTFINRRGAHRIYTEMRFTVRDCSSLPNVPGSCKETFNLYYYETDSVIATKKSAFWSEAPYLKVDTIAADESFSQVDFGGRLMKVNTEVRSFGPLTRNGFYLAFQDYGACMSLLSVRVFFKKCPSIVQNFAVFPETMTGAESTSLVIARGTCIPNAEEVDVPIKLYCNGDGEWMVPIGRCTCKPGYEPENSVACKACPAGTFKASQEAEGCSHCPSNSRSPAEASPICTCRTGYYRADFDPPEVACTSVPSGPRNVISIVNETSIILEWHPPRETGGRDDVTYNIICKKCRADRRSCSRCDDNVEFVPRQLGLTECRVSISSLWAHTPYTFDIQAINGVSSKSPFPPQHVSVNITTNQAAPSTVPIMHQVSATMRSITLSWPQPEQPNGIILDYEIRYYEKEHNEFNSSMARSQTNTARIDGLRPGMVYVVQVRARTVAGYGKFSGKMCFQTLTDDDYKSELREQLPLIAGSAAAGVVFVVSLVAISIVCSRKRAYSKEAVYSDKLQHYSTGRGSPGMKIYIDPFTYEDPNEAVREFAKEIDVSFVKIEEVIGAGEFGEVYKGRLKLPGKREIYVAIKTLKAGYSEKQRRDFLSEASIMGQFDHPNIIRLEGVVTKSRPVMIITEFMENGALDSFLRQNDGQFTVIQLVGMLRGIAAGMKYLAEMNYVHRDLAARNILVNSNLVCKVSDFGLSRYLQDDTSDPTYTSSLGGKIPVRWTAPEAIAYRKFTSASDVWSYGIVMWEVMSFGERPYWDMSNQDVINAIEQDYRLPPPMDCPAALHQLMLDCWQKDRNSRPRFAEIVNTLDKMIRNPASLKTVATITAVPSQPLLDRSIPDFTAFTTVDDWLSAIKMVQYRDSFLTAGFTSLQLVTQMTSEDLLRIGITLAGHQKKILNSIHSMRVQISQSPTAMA
Procedure: as §1, §2, §3

FLT3(D835Y) = FLT3(D835Y) (Homo sapiens (Human), UniProt P36888, D835Y)
Procedure: as §1, §2, §3

GRK4 = GRK4 (Homo sapiens (Human), UniProt P32298)
Procedure: as §1, §2, §3

HCK = HCK (Homo sapiens (Human), UniProt P08631)
Procedure: as §1, §2, §3

HIPK2 = HIPK2 (Homo sapiens (Human), UniProt Q9H2X6)
Procedure: as §1, §2, §3

HIPK3 = HIPK3 (Homo sapiens (Human), UniProt Q9H422)
Procedure: as §1, §2, §3

KIT(A829P) = KIT(A829P) (Homo sapiens (Human), UniProt P10721, A829P)
Procedure: as §1, §2, §3

MAP4K2 = MAP4K2 (Homo sapiens (Human), UniProt Q12851)
MAP4K2, sequence (Q12851 whole entry): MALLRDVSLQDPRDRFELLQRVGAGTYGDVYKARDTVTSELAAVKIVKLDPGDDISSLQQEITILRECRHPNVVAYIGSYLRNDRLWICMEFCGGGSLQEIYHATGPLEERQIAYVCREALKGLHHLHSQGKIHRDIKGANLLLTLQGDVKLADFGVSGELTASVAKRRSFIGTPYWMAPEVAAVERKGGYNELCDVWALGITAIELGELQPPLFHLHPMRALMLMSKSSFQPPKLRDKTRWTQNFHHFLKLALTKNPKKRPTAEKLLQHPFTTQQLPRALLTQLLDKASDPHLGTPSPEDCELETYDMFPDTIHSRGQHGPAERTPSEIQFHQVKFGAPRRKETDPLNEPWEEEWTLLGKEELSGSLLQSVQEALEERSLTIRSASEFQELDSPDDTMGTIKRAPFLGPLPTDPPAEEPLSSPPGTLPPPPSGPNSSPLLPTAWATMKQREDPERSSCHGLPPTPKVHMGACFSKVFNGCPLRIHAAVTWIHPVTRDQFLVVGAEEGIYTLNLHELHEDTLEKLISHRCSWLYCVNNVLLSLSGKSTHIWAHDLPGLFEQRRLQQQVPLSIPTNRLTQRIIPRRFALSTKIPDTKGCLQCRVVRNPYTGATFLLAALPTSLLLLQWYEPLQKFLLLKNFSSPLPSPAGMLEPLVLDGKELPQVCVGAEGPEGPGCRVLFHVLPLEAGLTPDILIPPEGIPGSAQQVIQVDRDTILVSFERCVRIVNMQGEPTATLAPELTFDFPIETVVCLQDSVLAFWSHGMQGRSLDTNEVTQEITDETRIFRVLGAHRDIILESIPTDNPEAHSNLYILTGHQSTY
Procedure: as §1, §2, §3

MARK4 = MARK4 (Homo sapiens (Human), UniProt Q96L34)
Procedure: as §1, §2, §3

MEK4 = MEK4 (Homo sapiens (Human), UniProt P45985)
Procedure: as §1, §2, §3

MYLK4 = MYLK4 (Homo sapiens (Human), UniProt Q86YV6)
Procedure: as §1, §2, §3

NEK11 = NEK11 (Homo sapiens (Human), UniProt Q8NG66)
Procedure: as §1, §2, §3

PIK3CA(E545K) = PIK3CA(E545K) (Homo sapiens (Human), UniProt P42336, E545K)
Procedure: as §1, §2, §3

PIK4CB = PIK4CB (Homo sapiens (Human), UniProt Q9UBF8)
Procedure: as §1, §2, §3

PIKFYVE = PIKFYVE (Homo sapiens (Human), UniProt Q9Y2I7)
Procedure: as §1, §2, §3

PIM1 = PIM1 (Homo sapiens (Human), UniProt P11309)
PIM1, sequence (P11309 whole entry): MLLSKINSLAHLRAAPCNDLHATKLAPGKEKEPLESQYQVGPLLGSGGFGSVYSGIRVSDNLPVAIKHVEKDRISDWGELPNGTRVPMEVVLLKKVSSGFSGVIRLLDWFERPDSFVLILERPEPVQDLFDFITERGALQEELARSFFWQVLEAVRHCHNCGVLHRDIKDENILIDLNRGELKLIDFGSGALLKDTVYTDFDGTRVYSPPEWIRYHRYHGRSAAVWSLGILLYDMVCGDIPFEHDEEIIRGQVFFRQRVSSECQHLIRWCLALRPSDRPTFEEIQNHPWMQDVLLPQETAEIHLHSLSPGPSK
Procedure: as §1, §2, §3

PIP5K1A = PIP5K1A (Homo sapiens (Human), UniProt Q99755)
Procedure: as §1, §2, §3

PKN1 = PKN1 (Homo sapiens (Human), UniProt Q16512)
Procedure: as §1, §2, §3

PKN2 = PKN2 (Homo sapiens (Human), UniProt Q16513)
PKN2, sequence (Q16513 whole entry): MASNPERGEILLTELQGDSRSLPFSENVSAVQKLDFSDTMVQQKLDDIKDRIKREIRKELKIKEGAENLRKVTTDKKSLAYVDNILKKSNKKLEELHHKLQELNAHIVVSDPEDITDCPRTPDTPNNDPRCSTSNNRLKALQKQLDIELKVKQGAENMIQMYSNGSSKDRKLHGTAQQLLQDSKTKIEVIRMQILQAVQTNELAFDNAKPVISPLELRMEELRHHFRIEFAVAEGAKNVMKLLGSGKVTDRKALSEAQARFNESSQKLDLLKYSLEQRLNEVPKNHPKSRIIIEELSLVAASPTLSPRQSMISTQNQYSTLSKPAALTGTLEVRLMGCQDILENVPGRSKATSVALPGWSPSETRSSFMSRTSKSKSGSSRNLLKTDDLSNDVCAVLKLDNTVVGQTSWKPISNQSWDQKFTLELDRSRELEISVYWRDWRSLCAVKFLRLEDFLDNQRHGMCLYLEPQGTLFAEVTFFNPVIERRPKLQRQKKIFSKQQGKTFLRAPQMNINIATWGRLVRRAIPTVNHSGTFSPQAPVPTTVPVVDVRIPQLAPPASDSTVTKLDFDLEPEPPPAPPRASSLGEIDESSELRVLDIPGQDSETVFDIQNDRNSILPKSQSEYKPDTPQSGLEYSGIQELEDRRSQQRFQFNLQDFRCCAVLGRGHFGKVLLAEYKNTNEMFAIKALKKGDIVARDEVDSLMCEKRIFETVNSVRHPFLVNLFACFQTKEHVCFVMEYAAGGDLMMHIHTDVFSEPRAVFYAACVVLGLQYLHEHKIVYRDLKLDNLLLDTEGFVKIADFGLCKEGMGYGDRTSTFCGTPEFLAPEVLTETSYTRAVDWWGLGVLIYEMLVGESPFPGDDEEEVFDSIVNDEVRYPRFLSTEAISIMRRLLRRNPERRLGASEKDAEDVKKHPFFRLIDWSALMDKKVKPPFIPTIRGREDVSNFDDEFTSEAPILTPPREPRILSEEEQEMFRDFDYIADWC
Procedure: as §1, §2, §3

PRKCQ = PRKCQ (Homo sapiens (Human), UniProt Q04759)
Procedure: as §1, §2, §3

RIOK1 = RIOK1 (Homo sapiens (Human), UniProt Q9BRS2)
Procedure: as §1, §2, §3

STK36 = STK36 (Homo sapiens (Human), UniProt Q9NRP7)
STK36, sequence (Q9NRP7 whole entry): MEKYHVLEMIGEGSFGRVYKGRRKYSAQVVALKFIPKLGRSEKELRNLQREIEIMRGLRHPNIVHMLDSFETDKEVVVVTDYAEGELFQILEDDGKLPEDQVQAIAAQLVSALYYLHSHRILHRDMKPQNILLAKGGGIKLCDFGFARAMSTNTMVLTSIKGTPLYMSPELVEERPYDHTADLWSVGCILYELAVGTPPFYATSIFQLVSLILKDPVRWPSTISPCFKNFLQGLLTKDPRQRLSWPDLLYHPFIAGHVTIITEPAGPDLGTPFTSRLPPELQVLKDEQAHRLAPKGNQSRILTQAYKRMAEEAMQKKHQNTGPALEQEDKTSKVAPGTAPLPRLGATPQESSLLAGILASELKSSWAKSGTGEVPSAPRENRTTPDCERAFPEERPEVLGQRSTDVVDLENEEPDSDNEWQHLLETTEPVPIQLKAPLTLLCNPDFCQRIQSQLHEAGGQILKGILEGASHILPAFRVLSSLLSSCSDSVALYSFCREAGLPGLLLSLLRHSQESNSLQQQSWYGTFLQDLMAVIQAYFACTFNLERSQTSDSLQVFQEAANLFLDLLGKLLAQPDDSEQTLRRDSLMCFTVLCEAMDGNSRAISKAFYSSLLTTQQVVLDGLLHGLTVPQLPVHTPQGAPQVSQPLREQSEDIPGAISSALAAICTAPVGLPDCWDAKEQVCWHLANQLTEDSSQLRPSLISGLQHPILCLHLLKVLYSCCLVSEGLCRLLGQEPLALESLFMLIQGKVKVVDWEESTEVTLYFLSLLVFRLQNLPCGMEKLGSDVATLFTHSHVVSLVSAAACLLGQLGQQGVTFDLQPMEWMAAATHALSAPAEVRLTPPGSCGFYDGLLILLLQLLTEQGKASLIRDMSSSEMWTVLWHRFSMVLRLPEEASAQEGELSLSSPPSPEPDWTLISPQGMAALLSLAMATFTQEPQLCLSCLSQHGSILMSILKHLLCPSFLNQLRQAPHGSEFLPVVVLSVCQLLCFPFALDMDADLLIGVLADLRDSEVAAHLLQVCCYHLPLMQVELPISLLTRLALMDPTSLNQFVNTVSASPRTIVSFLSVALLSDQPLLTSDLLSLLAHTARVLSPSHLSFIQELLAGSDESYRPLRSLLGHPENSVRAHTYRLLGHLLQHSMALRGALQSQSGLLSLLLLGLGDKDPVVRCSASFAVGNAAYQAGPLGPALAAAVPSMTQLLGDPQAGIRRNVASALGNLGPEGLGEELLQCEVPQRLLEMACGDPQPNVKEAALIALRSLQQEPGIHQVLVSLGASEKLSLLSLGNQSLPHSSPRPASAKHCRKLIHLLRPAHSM
Procedure: as §1, §2, §3

VRK2 = VRK2 (Homo sapiens (Human), UniProt Q86Y07)
Procedure: as §1, §2, §3

YANK1 = YANK1 (Homo sapiens (Human), UniProt Q8WU08)
Procedure: as §1, §2, §3

ZAK = ZAK (Homo sapiens (Human), UniProt Q9NYL2)
Procedure: as §1, §2, §3

CDC2L5 = CDC2L5 (Homo sapiens (Human), UniProt Q14004)
Procedure: (§4) Particularly, the compounds of Examples 18 and 57 were selected among all of those compounds of the present invention. DiscoverX Co. was asked to measure the enzyme (kinase) selectivity, and the experiment was performed using scanMAX™ Kinase assay panel.
(§5) At this time, the concentration of the drug treated to each enzyme was 1 uM in DMSO and the control percentage (% control) was determined by the following Equation 1. (Example Compound−Positive Control)/(Negative Control−Positive Control)×100 [Equation 1]
(§6) Herein, the positive control indicates the compound showing the % control of 0%, and the negative control indicates DMSO showing the % control of 100%. The enzyme selectivity in the present invention is defined as follows: When the % control for each enzyme is less than 35% (<35%), it is judged that the compound has the activity to the corresponding enzyme.

PFCDPK1(P. falciparum) = PFCDPK1(P. falciparum) (Plasmodium falciparum (isolate 3D7), UniProt P62344)
Procedure: as §4, §5, §6

PFPK5(P. falciparum) = PFPK5(P. falciparum) (Plasmodium falciparum (isolate 3D7), UniProt P61075)
Procedure: as §4, §5, §6

PKNB(M. tuberculosis) = PKNB(M. tuberculosis) (Mycobacterium tuberculosis (strain ATCC 25618 / H37Rv), UniProt P9WI81)
Procedure: as §4, §5, §6

PRP4 = PRP4 (Homo sapiens (Human), UniProt Q13523)
Procedure: as §4, §5, §6

With `CCNc1cc(Nc2ccc(C(=O)N3CCC(N4CCOCC4)CC3)cc2OC)nc2[nH]cc(C#N)c12` [Example 18, 4-(ethylamino)-6-((2-methoxy-4-(4-morpholinopiperidine-1-carbonyl)phenyl)amino)-1H-pyrrolo[2,3-b]pyridine-3-carbonitrile] the remaining binding at 1 µM (AKT1) was 100%, the remaining binding at 1 µM (BRAF(V600E)) was 87% and the remaining binding at 1 µM (CHEK2) was 4.1%. For the same compound, the remaining binding at 1 µM (DAPK3) was 14%, the remaining binding at 1 µM (EPHB1) was 95% and the remaining binding at 1 µM (FLT3(D835Y)) was 82%. The remaining binding at 1 µM (GRK4) was 100%, the remaining binding at 1 µM (HCK) was 85% and the remaining binding at 1 µM (HIPK2) was 68%. For the same compound, the remaining binding at 1 µM (HIPK3) was 74%, the remaining binding at 1 µM (KIT(A829P)) was 99% and the remaining binding at 1 µM (MAP4K2) was 61%. The remaining binding at 1 µM (MARK4) was 80%, the remaining binding at 1 µM (MEK4) was 0% and the remaining binding at 1 µM (MYLK4) was 88%. The remaining binding at 1 µM (NEK11) was 100%, the remaining binding at 1 µM (PIK3CA(E545K)) was 92% and the remaining binding at 1 µM (PIK4CB) was 80%. It also gave a remaining binding at 1 µM (PIKFYVE) of 99%, a remaining binding at 1 µM (PIM1) of 59% and a remaining binding at 1 µM (PIP5K1A) of 100%. It also gave a remaining binding at 1 µM (PKN1) of 85%, a remaining binding at 1 µM (PKN2) of 92% and a remaining binding at 1 µM (PRKCQ) of 94%. The remaining binding at 1 µM (RIOK1) was 94%, the remaining binding at 1 µM (STK36) was 98% and the remaining binding at 1 µM (VRK2) was 87%. It also gave a remaining binding at 1 µM (YANK1) of 100%, a remaining binding at 1 µM (ZAK) of 96% and a remaining binding at 1 µM (CDC2L5) of 100%. The remaining binding at 1 µM (PFCDPK1(P. falciparum)) was 72%, the remaining binding at 1 µM (PFPK5(P. falciparum)) was 98% and the remaining binding at 1 µM (PKNB(M. tuberculosis)) was 82%. For the same compound, the remaining binding at 1 µM (PRP4) was 100%.
`CCNc1cc(Nc2ccc(C(=O)N3CCC(N4CCOCC4)CC3)cc2OC)nc2[nH]cc(C(F)(F)F)c12` [Example 57, (4-((4-(ethylamino)-3-(trifluoromethyl)-1H-pyrrolo[2,3-b]pyridin-6-yl)amino)-3-methoxyphenyl) (4-morpholinopiperidin-1-yl)methanone] gave a remaining binding at 1 µM (AKT1) of 97%, a remaining binding at 1 µM (BRAF(V600E)) of 94% and a remaining binding at 1 µM (CHEK2) of 47%. For the same compound, the remaining binding at 1 µM (DAPK3) was 86%, the remaining binding at 1 µM (EPHB1) was 94% and the remaining binding at 1 µM (FLT3(D835Y)) was 88%. It also gave a remaining binding at 1 µM (GRK4) of 100%, a remaining binding at 1 µM (HCK) of 88% and a remaining binding at 1 µM (HIPK2) of 100%. It also gave a remaining binding at 1 µM (HIPK3) of 71%, a remaining binding at 1 µM (KIT(A829P)) of 100% and a remaining binding at 1 µM (MAP4K2) of 100%. It also gave a remaining binding at 1 µM (MARK4) of 76%, a remaining binding at 1 µM (MEK4) of 98% and a remaining binding at 1 µM (MYLK4) of 83%. The remaining binding at 1 µM (NEK11) was 100%, the remaining binding at 1 µM (PIK3CA(E545K)) was 73% and the remaining binding at 1 µM (PIK4CB) was 100%. For the same compound, the remaining binding at 1 µM (PIKFYVE) was 77%, the remaining binding at 1 µM (PIM1) was 94% and the remaining binding at 1 µM (PIP5K1A) was 88%. It also gave a remaining binding at 1 µM (PKN1) of 71%, a remaining binding at 1 µM (PKN2) of 92% and a remaining binding at 1 µM (PRKCQ) of 96%. It also gave a remaining binding at 1 µM (RIOK1) of 94%, a remaining binding at 1 µM (STK36) of 98% and a remaining binding at 1 µM (VRK2) of 100%. For the same compound, the remaining binding at 1 µM (YANK1) was 100%, the remaining binding at 1 µM (ZAK) was 87% and the remaining binding at 1 µM (CDC2L5) was 92%. It also gave a remaining binding at 1 µM (PFCDPK1(P. falciparum)) of 98%, a remaining binding at 1 µM (PFPK5(P. falciparum)) of 98% and a remaining binding at 1 µM (PKNB(M. tuberculosis)) of 100%. It also gave a remaining binding at 1 µM (PRP4) of 91%.
